The term IC50 denotes the concentration that inhibits the measured activity by half.

This passage reports IC50 results from paper PMC12817916, “A small-molecule HSP90 inhibitor, NVP-HSP990, alleviates rotavirus infection” (Journal of Virology, 2025).

SMILES strings stand for the structures. Like-named read-outs stand apart in the source and are kept apart here.

This test has as its system RV SA11 (G3P[2]) strain. As to the kind of experiment: In vitro assay of RV replication inhibition (PFA). In kind it is cell-based, Rotavirus. Conditions: MOI = 1, 24 h p.i., PFA, read-out: IC50. As to the method: For analysis of effects of different […] on RV replication in vitro, 10,000 MA104 cells, 30,000 Caco-2 cells, and 80,000 HT-29 cells in 100 µL complete DMEM medium were seeded in 96-well plates and cultured at 37°C and 5% CO2 for 24 h. Then the cells were infected with RV Wa or SA11 strains (MOI = 1 (PFU/cell)) for 1 h. After removing the viruses and washing cells two times with DMEM, 100 µL DMEM containing the indicated concentrations of drugs was added to each well, and the plates were incubated at 37°C and 5% CO2. At 24 h p.i., the infected cells and culture medium were collected, frozen/thawed twice, and subjected to centrifugation at 1,000 × g for 3 min at room temperature. Then, the supernatant was subjected to analysis of viral load by PFA. […] Dose-response data (drug concentrations as x-axis and normalized inhibition percentages as y-axis) were fitted to a dose-response inhibition model ([Inhibitor] vs normalized response – Variable slope). […] Model adequacy was validated using goodness-of-fit metrics (R^2 ≥ 0.95), 95% confidence intervals, and residual distribution analysis.
Wa/SA11 strains were titrated by PFA, which was carried out as described (3) with some modification. Briefly, confluent monolayers of MA104 cells in 24-well tissue culture plates were infected with 100 µL supernatants containing infectious RV particles which were serially diluted (10^1, 10^2, 10^3, and 10^4) with DMEM containing 1 µg/mL trypsin and penicillin (10,000 U/mL)-streptomycin (5 µg/mL) (DMEM-T) for 1 h at 37°C. Then 400 µL agarose overlay (0.8% agarose in 1×DMEM-T) was added and the plates were incubated at 37℃ and 5% CO2 for 5 days. The cells in each well were fixed by 1 mL 4% paraformaldehyde (Sangon Biotech, China) overnight (> 12 h) at room temperature. Then, the paraformaldehyde and agarose were removed and the monolayers were stained with 0.5 ml of a 1% (v/v) crystal violet (Sangon Biotech, China) diluted in distilled water for 10 min at room temperature. Then, the plates were drained and dried, and the plaques were enumerated. As the EDIM strain is not able to grow in cell culture, it was titrated by qPCR analysis as described (4) with EDIM VP6 gene as the target.

With `COc1cccc(-c2cc(F)ccc2[C@H]2Cc3nc(N)nc(C)c3C(=O)N2)n1` [NVP-HSP990], the concentration for half-maximal inhibition (IC50) by setting is: (SA11 strain in Caco-2 cells) 7.47 ± 4.84 nM; (SA11 strain in HT-29 cells) 3.85 ± 1.16 nM; (SA11 strain in MA104 cells) 0.84 ± 0.17 nM.
